These results are taken from EP4585599A1, “NITROGEN-CONTAINING FUSED RING COMPOUND, INTERMEDIATE THEREOF, PREPARATION METHOD THEREFOR AND USE THEREOF” (Hangzhou Synrx Therapeutics Biomedical Technology Co., Ltd., priority 2022, dated 2024).

Where two headings read alike, the source gives them in different places.

Assay [1] has as its target T1, helicase domain of the Pol θ protein (Homo sapiens, UniProt O75417).
T1 construct: The helicase domain of the Pol θ protein was purified from insect protein expression system; made in house; host or cells: insect protein expression system
The experiment in a line: Biochemical Activity Assay (ADP Glo Assay) of Pol θ inhibitor, ATPase activity. The settings on record: ssDNA substrate, read-out: Biochemical assay IC50. Background: ADP-Glo first removes unused ATP, then detects ADP through luciferase.

The nature of a further assay: cells. The settings on record: Homo sapiens, DLD-1, 240 h.
[2] abbreviates: ADP-Glo assay, ATPase activity of Pol θ helicase domain.
Where [3] appears, read: ADP-Glo, 60 min at room temperature.
[4] abbreviates: read-out: Cell viability assay IC50 (nM), CTG assay, CellTiter Glo, read on Day 10, cell line not given.
Setting [5] is: read-out: Cell viability assay IC50 (nM), CTG on Day 10, cell line not given (method: DLD1 and DLD1^-/- cells).

T1 sequence (O75417 102-554 limits assumed): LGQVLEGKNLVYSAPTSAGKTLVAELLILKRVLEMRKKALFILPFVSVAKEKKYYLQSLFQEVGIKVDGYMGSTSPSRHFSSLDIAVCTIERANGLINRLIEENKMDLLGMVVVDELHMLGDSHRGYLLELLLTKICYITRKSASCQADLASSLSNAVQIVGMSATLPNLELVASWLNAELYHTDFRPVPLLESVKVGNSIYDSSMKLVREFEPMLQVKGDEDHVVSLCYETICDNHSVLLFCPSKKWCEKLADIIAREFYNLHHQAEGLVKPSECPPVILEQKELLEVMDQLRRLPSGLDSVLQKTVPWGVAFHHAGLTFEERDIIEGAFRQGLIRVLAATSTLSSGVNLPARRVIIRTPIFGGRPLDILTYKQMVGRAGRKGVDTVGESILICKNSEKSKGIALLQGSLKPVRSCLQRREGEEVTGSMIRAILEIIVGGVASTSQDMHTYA

A word on the IC50: it is the concentration that gives 50% inhibition. On to `COc1cnc(Cl)cc1-c1cc(C)ncc1C(=O)Nc1nc2ccc(-c3c(C)cnn3C)nc2s1` [Example 80], for which the IC50 was 0.00912 µM in assay [1] (setting [2]), less than 0.05 µM in assay [1] (setting [3]), 30.3 nM in the assay “cells” (setting [4]) and less than 100 nM in the assay “cells” (setting [5]).

For the molecule `COc1cnc(Cl)cc1-c1cc(C)ncc1C(=O)Nc1nc2ncc(-c3ccc(N4CCNCC4)cc3)cc2s1` [Example 81], the IC50 in assay [1] (setting [2]) is 0.00251 µM; in assay [1] (setting [3]) it was less than 0.05 µM; in “cells” (setting [4]) it was 30.4 nM; in the assay “cells” (setting [5]) it was less than 100 nM.

As for `COc1cnc(Cl)cc1-c1cc(C)ncc1C(=O)Nc1nc2ccc(-c3ccncc3Cl)nc2s1` [Example 82], the IC50 in assay [1] (setting [2]) is 0.00671 µM; in assay [1] (setting [3]), less than 0.05 µM; in “cells” (setting [4]), 104 nM; in “cells” (setting [5]) it was 100 to 500 nM.

With `COc1cnc(Cl)cc1-c1cc(C)ncc1C(=O)Nc1nc2ccc(-c3ccncc3C)nc2s1` [Example 83], the 50% inhibitory concentration (IC50) in assay [1] (setting [2]) was 0.00321 µM; in assay [1] (setting [3]), less than 0.05 µM; in the assay “cells” (setting [4]), 29.3 nM; in “cells” (setting [5]) it was less than 100 nM.

In the case of `COc1cnc(Cl)cc1-c1cc(C)ncc1C(=O)Nc1nc2cc(F)c(C3=CCC(O)CC3)cc2s1` (stereo not shown) [Example 84], the IC50 was 0.00181 µM in assay [1] (setting [2]), less than 0.05 µM in assay [1] (setting [3]), 2.42 nM in “cells” (setting [4]) and less than 100 nM in “cells” (setting [5]).

For `COc1cnc(Cl)cc1-c1cc(C)ncc1C(=O)Nc1nc2cc(F)c(-c3ccc(P(C)(C)=O)cc3)cc2s1` [Example 85], the IC50 in assay [1] (setting [2]) is 0.00181 µM; in assay [1] (setting [3]), less than 0.05 µM; in “cells” (setting [4]) it was 44.7 nM; in the assay “cells” (setting [5]), less than 100 nM.

For the molecule `COc1cnc(Cl)cc1-c1cc(C)ncc1C(=O)Nc1nc2ncc(C3=COCCO3)cc2s1` [Example 86], the IC50 in assay [1] (setting [2]) was 0.00267 µM; in assay [1] (setting [3]), less than 0.05 µM; in the assay “cells” (setting [4]), 23.3 nM; in the assay “cells” (setting [5]), less than 100 nM.

In the case of `COc1cnc(Cl)cc1-c1cc(C)ncc1C(=O)Nc1nc2ncc(C3(O)CCC4(CC3)COC4)cc2s1` [Example 88, 2'-chloro-N-(6-(7-hydroxy-2-oxaspiro[3.5]non-7-yl)thiazolo[4,5-b]pyridin-2-yl)-5'-methoxy-6-methyl-[4,4'-bipyridine]-3-carboxamide], the half-inhibitory concentration (IC50) is 0.00115 µM in assay [1] (setting [2]), less than 0.05 µM in assay [1] (setting [3]), 52.1 nM in “cells” (setting [4]) and less than 100 nM in “cells” (setting [5]).

For the molecule `COc1cnc(Cl)cc1-c1cc(C)ncc1C(=O)Nc1nc2cc[nH]c2s1` [Example 90, 2'-chloro-5'-methoxy-6-methyl-N-(4H-pyrrolo[3,2-d]thiazol-2-yl)-[4,4'-bipyridine]-3-car boxamide], the 50% inhibitory concentration (IC50) was greater than 0.5 µM in assay [1] (setting [3]) and greater than 1000 nM in “cells” (setting [5]).

As to `COc1cnc(Cl)cc1-c1cc(C)ncc1C(=O)Nc1nc2cnc(C3=CCC(O)CC3)nc2s1` (stereo not shown) [Example 91, 2'-chloro-N-(5-(4-hydroxycyclohex-1-en-1-yl)thiazolo[5,4-d]pyrimidin-2-yl)-5'-methoxy-6-methyl-[4,4'-bipyridine]-3-carboxamide], the IC50 in assay [1] (setting [2]) is 0.00188 µM; in assay [1] (setting [3]), less than 0.05 µM; in the assay “cells” (setting [4]), 11.7 nM; in “cells” (setting [5]), less than 100 nM.

For the molecule `COc1cnc(Cl)cc1-c1cc(C)ncc1C(=O)Nc1nc2ncc(CC(C)(C)O)cc2s1` [Example 93, 2'-chloro-N-(6-(2-hydroxy-2-methylpropyl)thiazolo[4,5-b]pyridin-2-yl)-5'-methoxy-6-me thyl-[4,4'-bipyridine]-3-carboxamide], the IC50 in assay [1] (setting [2]) was 0.00593 µM; in assay [1] (setting [3]) it was less than 0.05 µM; in “cells” (setting [4]), 355 nM; in the assay “cells” (setting [5]), 100 to 500 nM.

For `COc1cnc(Cl)cc1-c1cc(C)ncc1C(=O)Nc1nc2ncc(S(C)(=O)=O)cc2s1` [Example 94, 2'-chloro-5'-methoxy-6-methyl-N-(6-(methylsulfonyl)thiazolo[4,5-b]pyridin-2-yl)-[4,4'-bipyridine]-3-carboxamide], the IC50 in assay [1] (setting [2]) is 0.00698 µM; in assay [1] (setting [3]), less than 0.05 µM; in “cells” (setting [4]), 631 nM; in the assay “cells” (setting [5]), 500 to 1000 nM.

Consider `COc1cnc(Cl)cc1-c1cc(C)ncc1C(=O)Nc1nc2ncc(C(C)(C)O)cc2s1` [Example 95, 2'-chloro-N-(6-(2-hydroxypropan-2-yl)thiazolo[4,5-b]pyridin-2-yl)-5'-methoxy-6-methyl-[4,4'-bipyridine]-3-carboxamide], for which the IC50 in assay [1] (setting [2]) is 0.00894 µM; in assay [1] (setting [3]), less than 0.05 µM; in “cells” (setting [4]), 383 nM; in “cells” (setting [5]), 100 to 500 nM.

In the case of `COc1cnc(Cl)cc1-c1cc(C)ncc1C(=O)Nc1nc2ncc(C(=O)N3CCC(O)CC3)cc2s1` [Example 96, 2'-chloro-N-(6-(4-hydroxypiperidin-1-carbonyl)thiazolo[4,5-b]pyridin-2-yl)-5'-methoxy-6-methyl-[4,4'-bipyridine]-3-carboxamide], the IC50 in assay [1] (setting [2]) was 0.00558 µM; in assay [1] (setting [3]) it was less than 0.05 µM; in “cells” (setting [4]) it was 7640 nM; in the assay “cells” (setting [5]), greater than 1000 nM.

For `COc1cnc(Cl)cc1-c1cc(C)ncc1C(=O)Nc1nc2ncc(N3CCC(CO)CC3)cc2s1` [Example 98, 2'-chloro-N-(6-(4-(hydroxymethyl)piperidin-1-yl)thiazolo[4,5-b]pyridin-2-yl)-5'-methox y-6-methyl-[4,4'-bipyridine]-3-carboxamide], the IC50 was 0.00296 µM in assay [1] (setting [2]), less than 0.05 µM in assay [1] (setting [3]), 10.6 nM in “cells” (setting [4]) and less than 100 nM in the assay “cells” (setting [5]).

Turning to `COc1cnc(Cl)cc1-c1cc(C)ncc1C(=O)Nc1nc2ncc(N3CCC4(CC(O)C4)C3)cc2s1` (stereo not shown) [Example 99], the IC50 is 0.0143 µM in assay [1] (setting [2]), less than 0.05 µM in assay [1] (setting [3]), 138 nM in the assay “cells” (setting [4]) and 100 to 500 nM in “cells” (setting [5]).

Turning to `COc1cnc(Cl)cc1-c1cc(C)ncc1C(=O)Nc1nc2ncc(N3CC[C@H](O)[C@H](F)C3)cc2s1` [Example 100], the IC50 in assay [1] (setting [2]) was 0.00295 µM; in assay [1] (setting [3]), less than 0.05 µM; in “cells” (setting [4]), 207 nM; in “cells” (setting [5]) it was 100 to 500 nM.

As to `COc1cnc(Cl)cc1-c1cc(C)ncc1C(=O)Nc1nc2ncc(N3CC[C@@H](O)[C@H](F)C3)cc2s1` [Example 101], the IC50 was 0.00378 µM in assay [1] (setting [2]), less than 0.05 µM in assay [1] (setting [3]), 389 nM in the assay “cells” (setting [4]) and 100 to 500 nM in the assay “cells” (setting [5]).

In the case of `COc1cnc(Cl)cc1-c1cc(C)ncc1C(=O)Nc1nc2ccc(N3CCC(O)CC3)cc2s1` [Example 102], the IC50 was 0.00806 µM in assay [1] (setting [2]), less than 0.05 µM in assay [1] (setting [3]), 178 nM in the assay “cells” (setting [4]) and less than 100 nM in “cells” (setting [5]).

As to `COc1cnc(Cl)cc1-c1cc(C)ncc1C(=O)Nc1nc2c(F)cc(N3CCC(O)CC3)cc2s1` [Example 103], the IC50 in assay [1] (setting [2]) is 0.00267 µM; in assay [1] (setting [3]), less than 0.05 µM; in the assay “cells” (setting [4]), 22.4 nM; in “cells” (setting [5]), less than 100 nM.

In the case of `COc1cnc(Cl)cc1-c1cc(C)ncc1C(=O)Nc1nc2ccc(N3CCC(O)CC3)c(F)c2s1` [Example 104], the IC50 in assay [1] (setting [2]) is 0.00156 µM; in assay [1] (setting [3]), less than 0.05 µM; in “cells” (setting [4]) it was 5.62 nM; in the assay “cells” (setting [5]), less than 100 nM.

On to `COc1cnc(Cl)cc1-c1cc(C)ncc1C(=O)Nc1nc2ncc(-c3ccnc(N4CCN[C@H](C)C4)c3)cc2s1` [Example 105, (R)-2'-chloro-5'-methoxy-6-methyl-N-(6-(2-(3-methylpiperazin-1-yl)pyridin-4-yl)thiazolo[4,5-b]pyridin-2-yl)-[4,4'-bipyridine]-3-carboxamide], for which the IC50 in assay [1] (setting [2]) is 0.00699 µM; in assay [1] (setting [3]), less than 0.05 µM; in the assay “cells” (setting [4]), 152 nM; in the assay “cells” (setting [5]), 100 to 500 nM.

`COc1cnc(Cl)cc1-c1cc(C)ncc1C(=O)Nc1nc2ncc(N3CCC(O)(CO)CC3)cc2s1` [Example 106, 2'-chloro-N-(6-(4-hydroxy-4-(hydroxymethyl)piperidin-1-yl)thiazolo[4,5-b]pyridin-2-yl) -5'-methoxy-6-methyl-[4,4'-bipyridine]-3-carboxamide]: the IC50 in assay [1] (setting [2]) is 0.00618 µM; in assay [1] (setting [3]), less than 0.05 µM; in the assay “cells” (setting [4]), 450 nM; in the assay “cells” (setting [5]) it was 100 to 500 nM.

Consider `[2H]COc1cnc(Cl)cc1-c1cc(C)ncc1C(=O)Nc1nc2cnc(C3=CCC(O)CC3)cc2s1` (stereo not shown) [Example 108, 2'-chloro-N-(6-(4-hydroxycyclohex-1-en-1-yl)thiazolo[4,5-c]pyridin-2-yl)-5'-deuteromet hoxy-6-methyl-[4,4'-bipyridine]-3-carboxamide], for which the IC50 is 0.00188 µM in assay [1] (setting [2]), less than 0.05 µM in assay [1] (setting [3]), 8.79 nM in “cells” (setting [4]) and less than 100 nM in the assay “cells” (setting [5]).

For the molecule `[2H]C([2H])([2H])c1cc(-c2cc(Cl)ncc2OC)c(C(=O)Nc2nc3cnc(C4=CCC(O)CC4)cc3s2)cn1` (stereo not shown) [Example 110, 2'-chloro-N-(6-(4-hydroxycyclohex-1-en-1-yl)thiazolo[4,5-c]pyridin-2-yl)-5'-methoxy-6-(methyl-d3)-[4,4'-bipyridine]-3-carboxamide], the half-inhibitory concentration (IC50) in assay [1] (setting [2]) is 0.00261 µM; in assay [1] (setting [3]) it was less than 0.05 µM; in the assay “cells” (setting [4]) it was 2.41 nM; in the assay “cells” (setting [5]), less than 100 nM.

`[2H]C1(O)CC=C(c2cc3sc(NC(=O)c4cnc(C)cc4-c4cc(Cl)ncc4OC)nc3cn2)CC1` (stereo not shown) [Example 111, 2'-chloro-N-(6-(4-hydroxycyclohex-1-en-1-yl-4-d)thiazolo[4,5-c]pyridin-2-yl)-5'-methox y-6-methyl-[4,4'-bipyridine]-3-carboxamide]: the IC50 in assay [1] (setting [2]) is 0.00378 µM; in assay [1] (setting [3]), less than 0.05 µM; in “cells” (setting [4]) it was 13.1 nM; in the assay “cells” (setting [5]) it was less than 100 nM.

In the case of `COc1cnc(Cl)cc1-c1cc(C)ncc1C(=O)Nc1nc2cnc(C3=CC[C@@H](O)CC3)cc2s1` [Example 115, (S) -2'-chloro-N-(6-(4-hydroxycyclohex-1-en-1-yl)thiazolo[4,5-c]pyridin-2-yl)-5'-methoxy-6-methyl-[4,4'-bipyridine]-3-c arboxamide], the IC50 in assay [1] (setting [2]) was 0.00321 µM; in assay [1] (setting [3]), less than 0.05 µM; in the assay “cells” (setting [4]), 2.61 nM; in “cells” (setting [5]), less than 100 nM.
